The values below come from patent US20210220340A1, “COMPOSITION FOR PREVENTION OR TREATMENT OF NEURODEGENERATIVE DISEASE” (THE ASAN FOUNDATION, priority 2018, published 2021).

Where a name gives a salt, the structure may show the parent alone. Read-outs that look alike come from different tables or passages of the source.

For experiment [1], the system named is all PDE isoforms. Briefly: HTS using all PDE isoforms as targets. Conditions: for inhibitory efficacy in all PDE isoforms: Example 18 screening, compared with cilostazol; for IC50: across PDE isoforms, FIG. 31. In kind it is biochemical. As for the experimental part:
Compounds included in the library of 800 FDA-approved drugs were diluted 1/4 from a concentration of 100 μM and dispensed into each well in 96-well plates, and mixed with a PDE reactant to allow a PDE reaction with the drug for 1 hour at a constant temperature.
The experiment was carried out in the same manner as used in screening of the FDA-approved drug library. […] Each of the screening library drugs were diluted 1/4 from 100 μM and dispensed into each well in 96-well plates, and mixed with a PDE reactant, followed by allowing a reaction between the drug and PDE for 1 hour for storage. After a stop solution was mixed with a AMP detection agent, the mixture was dispensed at 20 μl per well to allow a reaction for 10 minutes, followed by immediately measuring luminescence, and the experiment was performed according to a protocol provided by the kit used herein.
The first selection started with PDE3 as a target, and after candidate drugs were selected, all PDE isoforms were tested.

In experiment [2] the test system is cathepsin B. Put plainly: Lysosomal function activity in astrocytes: degree of hydrolysis of cathepsin B. Conditions: mouse astrocytes treated with bafilomycin A1 alone. It is filed as cell-based, mouse. As for the experimental part:
(§1) Samples stained with enzymatic dyes such as cathepsin B and cathepsin L were administered into the cell culture to allow a reaction for 30 minutes, and changes in activity of lysosomes in cells were confirmed using a confocal microscope.
(§2) Astrocytes were stained with a fluorescence-tagged lysosomal protein, and the degrees of hydrolysis of cathepsin B and cathepsin L, which are lysosomal proteins, were analyzed.
(§3) FIG. 21 is a set of time-dependent confocal microscope images of mouse astrocytes, which are treated with bafilomycin A1, which is a vATPase inhibitor, to assess the degree of hydrolysis of cathepsin B (top) and cathepsin L (bottom).

The test system of experiment [3] is mouse pericytes. Briefly: Lysosome pH in bafilomycin A1-treated pericytes (LysoSensor, confocal microscope). It is filed as cell-based. Conditions: mouse pericytes treated with bafilomycin A1 alone. The text has this:
A system that can visualize changes in intracellular lysosome pH with LysoSensor, which is a pH-sensitive lysosomal dye, in mouse pericytes using a confocal microscope was established (refer to Example 6) to observe whether amlexanox (AMX) is involved in the pH change of lysosomes in cells.
FIG. 19 is a set of time-dependent confocal microscope images (left) of mouse pericytes when being treated with Bafilomycin A1, which is a vATPase inhibitor, and then stained with LysoSensor, and quantified data (right) thereof.
Here, the images on the left side of FIG. 19 are obtained by treating mouse pericytes with bafilomycin A1, which is a vATPase inhibitor, and analyzing the cells using LysoSensor over time by a confocal microscope (top), and by treating the bafilomycin A1-treated mouse pericytes with the finally selected amlexanox (AMX) and analyzing the cells using LysoSensor over time by a confocal microscope (bottom).

Experiment [4] concerns cathepsin L. Put plainly: Lysosomal function activity in astrocytes: degree of hydrolysis of cathepsin L. In kind it is cell-based, mouse. The note with it: mouse astrocytes treated with bafilomycin A1 alone. As for the experimental part: as §1, §2, §3
The subject of experiment [5] is mouse pericytes. Put plainly: Amyloid beta aggregation in pericytes treated with cilostazol (confocal microscopy, western blotting). In kind it is cell-based. Conditions: 1 hour (confocal) and 24 hours (western blot). As for the experimental part:
Each type of cell was cultured under the culture conditions, a cell culture was restored, followed by preparing a particulate fraction in a 50 mM Tris buffer. Proteins obtained from the cell culture developed in a SDS polyacrylamide gel, transferred to an immobilon-P membrane (Millipore, USA), and reacted with antibodies overnight. Next day, western blots were washed, reacted with peroxidase-linked secondary antibodies at room temperature for 1 hour, followed by staining bands with 4-chloro-1-naphthol. From the result of Example 1, PDE3, which is specifically highly expressed in pericytes, is selected as a target material. It was observed how the treatment of cilostazol known as a specific inhibitor of PDE3 affects amyloid beta accumulation. FIG. 5 is a set of confocal microscope images of mouse pericytes which are cultured and then treated with CTL (control), amyloid beta (Aβ) and cilostazol (amyloid beta+cilostazol; +cilo) for 1 hour, respectively. The graph on the right side of FIG. 5 is obtained by observing pericytes treated with CTL (control), amyloid beta (Aβ) and cilostazol (amyloid beta+cilostazol; +cilo) for 1 hour, and measuring the fluorescence intensities thereof. […] The graph on the right side of FIG. 6 is obtained by measuring an oligomer/actin expression level and a monomer/actin expression level in each group.

Experiment [6] concerns mouse astrocytes. Briefly: Lysosome pH change in astrocytes (LysoSensor Green DND-189, acridine orange). In kind it is cell-based. The note with it: amyloid beta-accumulated. How it is done: For astrocyte culture, first, cerebral cortices (neocortices) were dissociated from murine fetuses (3 weeks old), and the obtained cortical tissue was divided into single cells. Subsequently, the single cells were seeded, and the cultured astrocytes were stored using a culture medium (DMEM 7% FBS+7% HS+100 U/mL penicillin+100 μg/mL […]) in a humidified incubator at 37[…] under a condition of 5% carbon dioxide. After DIV 10-14, cells grown to 80-90% or more confluence were used, and before an experiment, the cells were washed twice with warm MEM and used. New cells were cultured and used each time without passaging.
FIG. 8A is a set of images that visualize pH changes for 0 to 1 hour in respective groups of mouse astrocytes, which are stained with LysoSensor Green DND-189, and then treated with either amyloid beta (Aβ) or amyloid beta and cilostazol (Aβ+cilo).

For the compound `Cc1nc(N)sc1-c1ccnc(Nc2ccc(N3CCOCC3)cc2)n1` [CYC116], the “inhibitory efficacy in all PDE isoforms” value in experiment [1] is recorded as “high inhibitory efficacy”. Same read-out and setting: with `CCc1ccc(OCc2ccccc2C(=O)Nc2ccc3nc(C)cc(N)c3c2)cc1.Cl` [JTC-801] the entry was “high inhibitory efficacy”; with `OCc1ccc(-c2ccc(-c3ccc(CO)s3)o2)s1` [RITA, 5,5′-(2,5-furandiyl)bis-2-thiophenemethanol], “high inhibitory efficacy”; with `O=C(O)c1cccc(-c2noc(-c3ccccc3F)n2)c1` [ataluren], “high inhibitory efficacy”. On to `CO/C1=C\C(C)=C\[C@@H](C)[C@@H](O)[C@@H](C)C/C(C)=C/C=C/[C@H](OC)[C@@H]([C@@H](C)[C@@H](O)[C@H](C)[C@@]2(O)C[C@@H](O)[C@H](C)[C@@H](C(C)C)O2)OC1=O` [bafilomycin A1], for which the “cathepsin B (lysosomal protein activity)” value in experiment [2] is given as “decreased”. The “lysosomal pH” value in experiment [3] was “increased”. The “cathepsin L (lysosomal protein activity)” value in experiment [4] is “decreased”. As to `O=C1CCc2cc(OCCCCc3nnnn3C3CCCCC3)ccc2N1` [cilostazol], the “amount of aggregated amyloid beta” value in experiment [5] is on record as “significantly reduced”. Further, in experiment [6], the lysosomal function entry is “normalized” and the pH of lysosomes entry is reported as “acidified”. In the case of `CN1CCN(c2ccc3nc(-c4c(N)c5c(F)cccc5[nH]c4=O)[nH]c3c2)CC1` [dovitinib], in experiment [1], the “inhibitory efficacy in all PDE isoforms” value is listed as “high inhibitory efficacy”. With `Cc1nc(-c2ccc(OCC(C)C)c(C#N)c2)sc1C(=O)O` [febuxostat], the “inhibitory efficacy in all PDE isoforms” value in experiment [1] is “high inhibitory efficacy”. Same read-out and setting: in the case of `Oc1c(Cl)cc(Cl)c(Cl)c1Cc1c(O)c(Cl)cc(Cl)c1Cl` [hexachloropene] it was “high inhibitory efficacy”; in that of `Cc1ccc(NC(=O)c2ccc(CN3CCN(C)CC3)cc2)cc1Nc1nccc(-c2cccnc2)n1` [imatinib mesylate], “high inhibitory efficacy”. The same measure, in the same setting: with `Cc1ccc(NC(=O)c2ccc(CN3CCN(C)CC3)cc2)cc1Nc1nc(-c2cccnc2)cs1` [masitinib] the entry was “high inhibitory efficacy”; with `COC1=CC(c2cc3ccccc3[nH]2)=N/C1=C\c1[nH]c(C)cc1C` [obatoclax mesylate], “high inhibitory efficacy”. Turning to `Oc1cc(O)cc(/C=C/c2ccc(O)c(O)c2)c1` [piceathanol], in experiment [1], the “inhibitory efficacy in all PDE isoforms” value is given as “high inhibitory efficacy”. Also, the IC50 in experiment [1] (read-out: inhibition value of each isoform, lowest) is at least 0.0003 µM; in experiment [1] (read-out: inhibition value of each isoform, maximum) it was at most 5.5 µM.

For `Oc1ccc(/C=C/c2cc(O)cc(O)c2)cc1` [resveratrol], in experiment [1], the “inhibitory efficacy in all PDE isoforms” value is listed as “high inhibitory efficacy”. Still for that read-out and setting: in the case of pifithrin it was “high inhibitory efficacy”; in that of zafirlukast, “high inhibitory efficacy”.
